Among the targets are EGFR(L747-T751del,Sins) (Homo sapiens, UniProt P00533, DEL747-750/T751S); FGFR4 (Homo sapiens, UniProt P22455); FLT3(N841I) (Homo sapiens, UniProt P36888, N841I); GSK3B (Homo sapiens, UniProt P49841); MAP3K15 (Homo sapiens, UniProt Q6ZN16); MAP4K5 (Homo sapiens, UniProt Q9Y4K4); PHKG2 (Homo sapiens, UniProt P15735); PIK3CA(H1047Y) (Homo sapiens, UniProt P42336, H1047Y); PIM3 (Homo sapiens, UniProt Q86V86); PRKD1 (Homo sapiens, UniProt Q15139); SYK (Homo sapiens, UniProt P43405); TEC (Homo sapiens, UniProt P42680); TLK1 (Homo sapiens, UniProt Q9UKI8); TLK2 (Homo sapiens, UniProt Q86UE8); TTK (Homo sapiens, UniProt P33981).

Test in all cases: biochemical
What all share (parameters): KINOMEscan active-site competition binding, percent of control (100 = no competition)
Holding throughout (conditions): competition binding, percent control

Assay [1] has as its target T1, ABL1(T315I)-phosphorylated (Homo sapiens, UniProt P00519, T315I).
T1 construct: phosphorylated

A further assay deals with T2, ERK8 (Homo sapiens, UniProt Q8TD08).
T2 construct: gene MAPK15

Assay [2] addresses T3, JAK3(JH1domain-catalytic) (Homo sapiens, UniProt P52333).
T3 construct: JH1domain-catalytic

The target in another assay is T4, MEK1 (Homo sapiens, UniProt Q02750).
T4 construct: gene MAP2K1

A further assay has as its target T5, MEK4 (Homo sapiens, UniProt P45985).
T5 construct: gene MAP2K4

The target in the next assay is T6, MST4 (Homo sapiens, UniProt Q9P289).
T6 construct: gene STK26

For a further assay, the target named is T7, PRP4 (Homo sapiens, UniProt Q13523).
T7 construct: gene PRPF4B

The target of a further assay is T8, TRKC (Homo sapiens, UniProt Q16288).
T8 construct: gene NTRK3

GSK3B, sequence (P49841 whole entry): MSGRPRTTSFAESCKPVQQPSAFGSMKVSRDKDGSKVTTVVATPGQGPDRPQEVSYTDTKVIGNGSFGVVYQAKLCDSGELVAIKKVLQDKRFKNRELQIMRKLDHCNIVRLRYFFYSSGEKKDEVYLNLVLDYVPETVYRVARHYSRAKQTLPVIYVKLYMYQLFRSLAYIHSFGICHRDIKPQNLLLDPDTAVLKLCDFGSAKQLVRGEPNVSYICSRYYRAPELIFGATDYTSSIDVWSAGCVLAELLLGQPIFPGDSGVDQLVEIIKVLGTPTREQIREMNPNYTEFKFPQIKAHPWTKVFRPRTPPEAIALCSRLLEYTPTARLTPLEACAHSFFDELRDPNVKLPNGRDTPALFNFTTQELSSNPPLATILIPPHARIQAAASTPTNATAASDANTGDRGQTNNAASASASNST
MAP4K5, sequence (Q9Y4K4 whole entry): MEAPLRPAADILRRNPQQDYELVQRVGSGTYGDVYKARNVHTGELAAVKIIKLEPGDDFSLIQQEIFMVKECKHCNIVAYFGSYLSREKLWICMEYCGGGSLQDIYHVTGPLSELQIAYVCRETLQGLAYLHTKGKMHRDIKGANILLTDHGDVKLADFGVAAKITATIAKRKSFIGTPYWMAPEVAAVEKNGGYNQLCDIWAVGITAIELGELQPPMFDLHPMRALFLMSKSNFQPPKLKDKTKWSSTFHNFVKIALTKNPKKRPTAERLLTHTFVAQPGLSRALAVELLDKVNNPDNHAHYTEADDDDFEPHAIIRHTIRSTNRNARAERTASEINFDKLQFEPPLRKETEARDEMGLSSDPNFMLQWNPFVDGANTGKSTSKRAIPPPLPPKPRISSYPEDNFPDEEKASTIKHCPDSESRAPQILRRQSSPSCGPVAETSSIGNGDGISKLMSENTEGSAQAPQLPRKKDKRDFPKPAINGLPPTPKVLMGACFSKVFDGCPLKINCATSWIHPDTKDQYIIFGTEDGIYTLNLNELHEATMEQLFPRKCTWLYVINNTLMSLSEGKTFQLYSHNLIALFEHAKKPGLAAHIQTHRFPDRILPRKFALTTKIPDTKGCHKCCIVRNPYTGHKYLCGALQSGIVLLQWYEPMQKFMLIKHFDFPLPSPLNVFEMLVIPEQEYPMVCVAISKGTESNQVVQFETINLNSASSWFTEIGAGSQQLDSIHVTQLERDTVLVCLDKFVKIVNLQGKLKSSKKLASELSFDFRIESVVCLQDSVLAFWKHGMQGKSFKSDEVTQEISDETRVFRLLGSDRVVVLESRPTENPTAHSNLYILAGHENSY
EGFR(L747-T751del,Sins), sequence (P00533 with tags, fused parts or gaps DEL747-750/T751S): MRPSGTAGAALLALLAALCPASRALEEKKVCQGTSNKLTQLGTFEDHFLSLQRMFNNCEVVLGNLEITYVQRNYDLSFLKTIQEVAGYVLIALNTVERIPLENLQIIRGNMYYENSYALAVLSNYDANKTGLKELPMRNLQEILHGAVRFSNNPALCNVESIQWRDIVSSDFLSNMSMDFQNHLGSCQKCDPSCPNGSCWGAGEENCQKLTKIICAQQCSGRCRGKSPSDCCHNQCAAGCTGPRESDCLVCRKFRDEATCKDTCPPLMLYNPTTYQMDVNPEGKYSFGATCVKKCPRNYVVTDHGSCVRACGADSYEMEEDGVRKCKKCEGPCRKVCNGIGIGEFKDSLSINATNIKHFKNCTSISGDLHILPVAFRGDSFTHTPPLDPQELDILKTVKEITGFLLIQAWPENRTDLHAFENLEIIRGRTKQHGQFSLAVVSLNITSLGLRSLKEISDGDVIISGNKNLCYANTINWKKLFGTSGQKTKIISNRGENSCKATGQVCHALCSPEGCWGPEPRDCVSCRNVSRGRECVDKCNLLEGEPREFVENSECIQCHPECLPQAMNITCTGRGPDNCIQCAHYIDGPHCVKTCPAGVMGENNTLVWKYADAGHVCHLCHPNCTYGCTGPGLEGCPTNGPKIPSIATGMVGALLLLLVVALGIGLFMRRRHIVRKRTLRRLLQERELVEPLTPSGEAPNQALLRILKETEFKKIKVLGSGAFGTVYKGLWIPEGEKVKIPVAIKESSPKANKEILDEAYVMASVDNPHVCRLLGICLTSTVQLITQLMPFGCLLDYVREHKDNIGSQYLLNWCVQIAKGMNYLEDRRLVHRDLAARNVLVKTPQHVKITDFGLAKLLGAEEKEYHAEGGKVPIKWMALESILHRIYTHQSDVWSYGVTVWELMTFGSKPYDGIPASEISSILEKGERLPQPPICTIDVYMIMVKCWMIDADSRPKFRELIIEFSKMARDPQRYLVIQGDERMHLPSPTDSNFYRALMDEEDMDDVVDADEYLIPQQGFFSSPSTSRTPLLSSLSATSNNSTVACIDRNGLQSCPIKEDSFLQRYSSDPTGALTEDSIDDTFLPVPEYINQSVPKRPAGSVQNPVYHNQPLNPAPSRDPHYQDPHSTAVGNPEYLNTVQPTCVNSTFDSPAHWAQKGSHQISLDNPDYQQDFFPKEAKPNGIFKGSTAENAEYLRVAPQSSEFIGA
TLK2, sequence (Q86UE8 whole entry): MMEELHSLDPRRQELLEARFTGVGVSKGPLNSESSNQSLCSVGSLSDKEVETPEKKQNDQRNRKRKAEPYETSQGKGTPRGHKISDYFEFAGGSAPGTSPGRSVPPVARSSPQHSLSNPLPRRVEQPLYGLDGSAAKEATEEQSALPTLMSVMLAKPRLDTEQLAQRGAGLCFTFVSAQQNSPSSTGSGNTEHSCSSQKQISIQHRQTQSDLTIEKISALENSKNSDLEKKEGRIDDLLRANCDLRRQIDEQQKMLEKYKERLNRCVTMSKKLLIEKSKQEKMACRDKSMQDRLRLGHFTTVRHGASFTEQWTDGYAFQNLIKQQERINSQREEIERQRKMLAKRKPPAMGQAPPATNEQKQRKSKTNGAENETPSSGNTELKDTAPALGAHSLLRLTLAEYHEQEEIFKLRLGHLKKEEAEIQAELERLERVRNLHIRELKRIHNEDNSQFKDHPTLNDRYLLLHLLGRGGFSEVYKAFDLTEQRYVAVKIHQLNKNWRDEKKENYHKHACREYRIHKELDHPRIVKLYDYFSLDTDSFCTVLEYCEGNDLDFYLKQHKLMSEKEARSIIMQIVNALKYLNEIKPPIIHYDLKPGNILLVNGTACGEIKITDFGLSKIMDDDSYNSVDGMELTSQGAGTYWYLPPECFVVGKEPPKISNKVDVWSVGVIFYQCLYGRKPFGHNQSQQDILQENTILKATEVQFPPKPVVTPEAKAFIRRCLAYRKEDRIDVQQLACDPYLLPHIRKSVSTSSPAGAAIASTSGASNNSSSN
T5 sequence (P45985 whole entry): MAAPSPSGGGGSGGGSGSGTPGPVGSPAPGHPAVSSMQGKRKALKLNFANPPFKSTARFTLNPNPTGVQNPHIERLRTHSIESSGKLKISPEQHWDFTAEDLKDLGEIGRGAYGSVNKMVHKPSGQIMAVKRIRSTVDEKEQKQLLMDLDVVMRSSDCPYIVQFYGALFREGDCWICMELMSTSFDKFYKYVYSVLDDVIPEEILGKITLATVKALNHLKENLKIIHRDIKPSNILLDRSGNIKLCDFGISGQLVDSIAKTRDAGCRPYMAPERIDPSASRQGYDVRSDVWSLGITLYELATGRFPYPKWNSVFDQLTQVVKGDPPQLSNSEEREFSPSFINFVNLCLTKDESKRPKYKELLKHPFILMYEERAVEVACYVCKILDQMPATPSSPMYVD
MAP3K15, sequence (Q6ZN16 whole entry): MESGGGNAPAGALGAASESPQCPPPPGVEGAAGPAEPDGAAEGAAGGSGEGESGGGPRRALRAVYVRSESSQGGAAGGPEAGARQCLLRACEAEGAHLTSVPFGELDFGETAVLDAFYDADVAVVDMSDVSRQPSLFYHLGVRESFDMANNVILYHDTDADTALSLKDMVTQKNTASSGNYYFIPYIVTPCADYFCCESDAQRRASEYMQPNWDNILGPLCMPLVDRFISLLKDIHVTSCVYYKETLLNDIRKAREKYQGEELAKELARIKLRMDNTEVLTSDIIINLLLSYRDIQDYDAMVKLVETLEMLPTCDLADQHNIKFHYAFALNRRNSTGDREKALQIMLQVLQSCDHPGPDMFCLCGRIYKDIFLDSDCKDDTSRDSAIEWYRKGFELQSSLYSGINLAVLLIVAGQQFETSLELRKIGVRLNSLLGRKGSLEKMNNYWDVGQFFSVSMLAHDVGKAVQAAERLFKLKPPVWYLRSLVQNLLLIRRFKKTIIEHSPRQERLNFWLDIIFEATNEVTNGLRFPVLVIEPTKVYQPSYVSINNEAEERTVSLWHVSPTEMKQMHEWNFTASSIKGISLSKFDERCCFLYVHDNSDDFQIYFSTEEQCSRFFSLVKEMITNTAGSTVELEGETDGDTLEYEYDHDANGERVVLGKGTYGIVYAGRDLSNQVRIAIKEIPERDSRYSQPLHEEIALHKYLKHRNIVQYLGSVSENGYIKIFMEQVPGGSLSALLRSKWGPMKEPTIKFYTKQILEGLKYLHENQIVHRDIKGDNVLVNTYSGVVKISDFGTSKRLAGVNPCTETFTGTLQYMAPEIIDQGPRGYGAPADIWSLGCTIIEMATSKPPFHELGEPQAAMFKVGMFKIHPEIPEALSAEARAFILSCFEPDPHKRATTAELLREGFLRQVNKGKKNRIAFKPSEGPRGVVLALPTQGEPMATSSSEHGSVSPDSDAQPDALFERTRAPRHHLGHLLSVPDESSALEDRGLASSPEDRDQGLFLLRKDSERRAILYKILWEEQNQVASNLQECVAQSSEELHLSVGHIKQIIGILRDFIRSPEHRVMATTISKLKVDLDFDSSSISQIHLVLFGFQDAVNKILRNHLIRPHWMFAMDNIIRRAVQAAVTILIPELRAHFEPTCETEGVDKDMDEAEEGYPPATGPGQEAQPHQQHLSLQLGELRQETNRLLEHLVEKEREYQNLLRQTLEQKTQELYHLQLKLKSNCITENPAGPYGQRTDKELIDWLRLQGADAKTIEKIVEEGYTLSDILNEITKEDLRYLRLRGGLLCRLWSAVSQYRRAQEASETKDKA

For `COc1ccc(-c2cnccc2-c2cnc(NC(=O)C(C)C)s2)c(C(F)(F)F)c1` [CRT0105446, N-{5-[3-(4-Methoxy-2-trifluoromethyl-phenyl)-pyridin-4-yl]-hiazol-2-yl}-isobutyramide], the remaining binding at 10 µM was 99% in [1]; 100% on EGFR(L747-T751del,Sins); 1.4% on ERK8; 90% on FGFR4; 22% at FLT3(N841I); 82% at GSK3B. Further, the remaining binding at 10 µM in assay [2] worked out at 100%; at MAP3K15 it was 93%; at MAP4K5, 100%; on MEK1, 87%; at MEK4, 82%; at MST4, 61%. Moreover, the remaining binding at 10 µM at PHKG2 is 92%; at PIK3CA(H1047Y) it was 94%; on PIM3, 95%; on PRKD1 it was 88%; at PRP4, 100%; on SYK, 100%. The remaining binding at 10 µM was 100% at TEC; 100% at TLK1; 99% on TLK2; 100% at TRKC; 32% at TTK.

On to `Cc1ccc(-c2cnccc2-c2cnc(Nc3ccc(O)cc3)s2)c(Cl)c1` [CRT0105950, 4-{5-[3-(2-Chloro-4-methyl-phenyl)-pyridin-4-yl]-thiazol-2-ylamino}-phenol], for which the remaining binding at 10 µM amounted to 79% in [1]; 68% at EGFR(L747-T751del,Sins); 1.6% on ERK8; 29% on FGFR4; 0% on FLT3(N841I); 86% at GSK3B. Also, the remaining binding at 10 µM in assay [2] stood at 33%; at MAP3K15, 82%; at MAP4K5 it was 32%; at MEK1, 51%; at MEK4 it was 1.8%; on MST4, 37%. The remaining binding at 10 µM worked out at 52% on PHKG2; 93% at PIK3CA(H1047Y); 72% at PIM3; 18% at PRKD1; 100% at PRP4; 100% on SYK. The remaining binding at 10 µM at TEC came out at 100%; on TLK1, 62%; at TLK2, 56%; on TRKC it was 0.6%; at TTK it was 1.7%.

Source of the values: article PMC4770715, “LIM kinase inhibitors disrupt mitotic microtubule organization and impair tumor cell proliferation” (Oncotarget, 2015).
